In US20030154517A1, “Efficiency agrobacterium-mediated wheat transformation method” (priority 2001, published 2003):
“And” between values parts separate entries of the source, which are not always exact repeats. Equal values may be shown once. Read-outs that look alike come from different tables or passages of the source.

What was measured:
[1] = tested on: immature embryos of wheat; assay: Agrobacterium-mediated wheat transformation, nptII (G418/kanamycin) selection (transformation efficiency); format: cell-based, Triticum aestivum L
Text: Immature embryos of wheat (Triticum aestivum L) cv Bobwhite were isolated from the immature caryopsis (wheat spikelets) 12-15 days after pollination, and cultured on CM4C (Table 2) for 1-8 days, most typically for 4-6. The embryos without embryogenic callus were selected for Agrobacterium inoculation.
A disarmed Agrobacterium strain C58 (ABI) harboring a binary vector was used for all the experiments. […] The Agrobacterium cells were resuspended in the inoculation medium and the density was adjusted to an OD660 of 1. […] An equal amount of the Agrobacterium cell suspension was added such that the final concentration of Agrobacterium cells was an OD660 of 0.5. In most experiments, pluronic F68 was added to the inoculation mixture at a final concentration of 0.01%. The ratio between the Agrobacterium and immature embryos (IEs) was about 10 mL: 20-200 IEs. The conditions for inoculation were temperatures from about 23° C.-26° C. with a duration from about 5-60 minutes.
After the inoculation period, the remaining Agrobacterium cells were removed from the explants by using the in-house vacuum equipment. A piece of sterile Whatman No. 1 filter paper (to fit the size of the petri plate) was placed in each of 60×15 or 60×20 mm petri dishes without additional liquid or agar-supplemented media. Two hundred microliters of sterile water was placed in the middle of the filter paper. After 2-3 minutes, the inoculated immature embryos were placed in the plates. Usually, 20-50 explants are grouped as one stack (about 1 cm in size and 60-80 mg/stack), with 4-5 stacks on each plate. The plates were immediately parafilmed and then co-cultivated in the dark at 24° C.-26° C. for 2-3 days.
For nptII selection, immature embryos were isolated, precultured, inoculated, and co-cultured as previously described. After the 3-day co-culture, embryos were transferred to delay culture (solid CM4C2D) media (CM4C media as in Table 2 with 2 mg/L 2,4-D) with 500 mg/L carbenicillin for 7 days in the dark at 25° C. Selection was done in liquid CM4C media (as in Table 2 without the Phytagel) with 100 mg/L carbenicillin and 20 mg/L G418 on a support for 7 days in the dark followed by 7 days in the light (16 hr photoperiod), at 25° C. The calli were then transferred to liquid MMS0.2C media (as in Table 2 without the gelling agent) with 100 mg/L carbenicillin and 25 mg/L G418 on a support for 2 weeks at 25° C. with a 16 hr photoperiod. After 2 weeks, the calli were transferred to liquid MMSOC media (as in Table 2 without the gelling agent) with 100 mg/L carbenicillin and 25 mg/L G418 on a support for 2 to 4 weeks at 25° C. with a 16 hr photoperiod. Plantlets were transferred to solid MMSOC media with 100 mg/L carbenicillin and 25 mg/L G418 in sundae cups for 1 to 4 weeks at 25° C. with a 16 hr photoperiod.

[2] = tested on: wheat callus cultures; conditions: for 1 shoot/callus / 2 shoots/callus / 3 shoots/callus / 4 shoots/callus / Regenerable callus, # / Regenerable callus, % / Shoots, #: no glyphosate; for Shoots, #: two experiments
Procedure: Five treatments were done: 1) control (0.1 μM Cu as in MS medium) without additional copper; 2) 2 μM copper, applied at delay and selection for 2 weeks total; 3) 2 μM Cu at 1st regeneration for 2 weeks; 4) 2 μM Cu at 2nd regeneration for 2 or more weeks; and 5) 2 μM Cu constantly present at all of these stages.

[3] = tested on: immature embryos of wheat (Triticum aestivum L) cv Bobwhite; assay: Agrobacterium-mediated wheat transformation, glyphosate selection (transformation efficiency); format: cell-based; conditions: for Over all % TE / Total Ind. Events: six experiments; for Transgenic #: Expt. 309 and Expt. 314
[4] = 2 μM Cu at 2nd Reg. (MMS0C), 2 w.
[5] = Table 16: 250 μM CuSO4 in MMS0C
[6] = Table 16: 500 μM CuSO4 in MMS0C
[7] = Table 16: 750 μM CuSO4 in MMS0C
[8] = Table 16: 1000 μM CuSO4 in MMS0C
[9] = Table 16: 1500 μM CuSO4 in MMS0C
[10] = Table 16: 2000 μM CuSO4 in MMS0C
[11] = Table 16: 3000 μM CuSO4 in MMS0C

O=S(=O)([O-])[O-].[Cu+2] [CuSO4, copper sulfate]
Independent transgenic events/explants [1]: 37/220 and 63/228 and 48/211 and 46/275 and 53/225
% TE ([1]; 2 μM copper sulfate in MMSOC, nptII liquid system, per experiment and Totals, listed as Copper sulfate): 3.72% and 2.16% and 0.57% and 9.43% and 9.14% and 4.51% and 1.56%
% TE ([1]; 2 μM copper sulfate in MMSOC, nptII liquid system, per experiment and Totals, listed as copper): 4.5%
% TE ([1]; 20 μM copper sulfate in MMSOC, nptII liquid system, per experiment and Totals): 7.2%
% TE ([1]; Table 19: compound at 2 μM in second regeneration stage (MMSOC media)): 16.8%
% TE ([1]; Table 19: compound at 20 μM in second regeneration stage (MMSOC media)): 27.6% and 30.6% and 22.7% and 16.7% and 23.6%
% TE ([1]; Table 19: compound at 20 μM in second regeneration stage (MMSOC media), listed as copper sulfate): 27.6% and 16.7% and 22.7%
1 shoot/callus ([2]; 2 μM Cu at 1st Reg., 2 w.): 11.8
2 shoots/callus ([2]; 2 μM Cu at 1st Reg., 2 w.): 9.3
3 shoots/callus ([2]; 2 μM Cu at 1st Reg., 2 w.): 3.3
4 shoots/callus ([2]; 2 μM Cu at 1st Reg., 2 w.): 1.3
Regenerable callus, # ([2]; 2 μM Cu at 1st Reg., 2 w.): 30.5
Regenerable callus, % ([2]; 2 μM Cu at 1st Reg., 2 w.): 61%
Shoots, # ([2]; 2 μM Cu at 1st Reg., 2 w.): 44
effect on regeneration ([2]; 2 μM Cu at 1st regeneration stage): very little or no effect
Regenerable callus, # [2, 4]: 40
Regenerable callus, % [2, 4]: 80%
Shoots, # [2, 4]: 80.5
2 shoots/callus ([2]; 2 μM Cu at 2nd Reg., 2 w.): 12.5
3 shoots/callus ([2]; 2 μM Cu at 2nd Reg., 2 w.): 9.8
4 shoots/callus ([2]; 2 μM Cu at 2nd Reg., 2 w.): 4.3
effect on regeneration ([2]; 2 μM Cu at 2nd regeneration stage): most significant increase in regeneration
1 shoot/callus ([2]; 2 μM Cu at Delay/Sel., 2 w.): 14.3
2 shoots/callus ([2]; 2 μM Cu at Delay/Sel., 2 w.): 8.5
3 shoots/callus ([2]; 2 μM Cu at Delay/Sel., 2 w.): 7.8
4 shoots/callus ([2]; 2 μM Cu at Delay/Sel., 2 w.): 0.5
Regenerable callus, # ([2]; 2 μM Cu at Delay/Sel., 2 w.): 35.6
Regenerable callus, % ([2]; 2 μM Cu at Delay/Sel., 2 w.): 71%
Shoots, # ([2]; 2 μM Cu at Delay/Sel., 2 w.): 57.5
1 shoot/callus ([2]; 2 μM Cu at all stages, 6 w.): 9
2 shoots/callus ([2]; 2 μM Cu at all stages, 6 w.): 11.5
3 shoots/callus ([2]; 2 μM Cu at all stages, 6 w.): 2.5
4 shoots/callus ([2]; 2 μM Cu at all stages, 6 w.): 0.5
Regenerable callus, # ([2]; 2 μM Cu at all stages, 6 w.): 30.5
Regenerable callus, % ([2]; 2 μM Cu at all stages, 6 w.): 61%
Shoots, # ([2]; 2 μM Cu at all stages, 6 w.): 37
effect on regeneration ([2]; 2 μM Cu at delay and selection stage): Some improvement
effect on regeneration ([2]; 2 μM Cu present at all stages): No improvement
improvement in TE (×) ([3]; 1.0 μM copper sulfate in MMS0C, experiment 309): 2.5 ×
improvement in TE (×) ([3]; 1.0 μM copper sulfate in MMS0C, experiment 314): ~4 ×
improvement in TE (×) ([3]; 2.0 μM copper sulfate in MMS0C, experiment 309): 3.5 ×
improvement in TE (×) ([3]; 2.0 μM copper sulfate in MMS0C, experiment 314): ~10 ×
TE % ([3]; CuSO4 2 μM, initial 14 days (2 weeks) of last regeneration stage (MMS0C), per experiment and Total/average of twelve, listed as Cu): 16.6%
% TE ([3]; Table 14: 2 μM Cu in MMS0C, per experiment and Total, listed as Cu): 11.4% and 15.1% and 9.4%
% TE ([3]; Table 14: 20 μM Cu in MMS0C, per experiment and Total, listed as Cu): 17.4% and 20.3% and 15.9%
Over all % TE ([3]; Table 15: 20 μM CuSO4 in MMS0C): 17.6%
Total Ind. Events ([3]; Table 15: 20 μM CuSO4 in MMS0C): 103
% TE ([3]; Table 15: 40 μM CuSO4 in MMS0C, experiments 292, 293, 295, 296, 297, 301): 14.0% and 13.9% and 22.6% and 21.8% and 20.7% and 19.6%
Over all % TE ([3]; Table 15: 40 μM CuSO4 in MMS0C): 18.6%
Total Ind. Events ([3]; Table 15: 40 μM CuSO4 in MMS0C): 109
Over all % TE ([3]; Table 15: 80 μM CuSO4 in MMS0C): 16.6%
Total Ind. Events ([3]; Table 15: 80 μM CuSO4 in MMS0C): 98
% TE ([3]; Table 16: 40 μM CuSO4 in MMS0C): 17.5%
Transgenics ([3]; Table 16: 40 μM CuSO4 in MMS0C): 14
% TE [3, 5]: 20%
Transgenics [3, 5]: 16
% TE [3, 6]: 24% and 23.75%
Transgenics [3, 6]: 19
% TE [3, 7]: 15.0%
Transgenics [3, 7]: 12
% TE [3, 8]: 10.0%
Transgenics [3, 8]: 8
% TE [3, 9]: 13.8%
Transgenics [3, 9]: 11
% TE [3, 10]: 11.1%
Transgenics [3, 10]: 4
% TE [3, 11]: 5.6%
Transgenics [3, 11]: 2
% TE ([3]; Table 17: 0.25 μM CuSO4 in MMS0C, both experiments): 4.8%
Transgenic # ([3]; Table 17: 0.5 μM CuSO4 in MMS0C): 4 and 5
% TE ([3]; Table 17: 0.5 μM CuSO4 in MMS0C, both experiments): 4.3%
Transgenic # ([3]; Table 17: 1.0 μM CuSO4 in MMS0C): 10 and 11
% TE ([3]; Table 17: 1.0 μM CuSO4 in MMS0C, both experiments): 10.1%
% TE ([3]; Table 17: 2.0 μM CuSO4 in MMS0C, both experiments): 20.7%
TE, average ([3]; copper sulfate from 20 to 80 μM inclusive in MMS0C, Table 15): 17.6%
